Data as given in US12139735B2, “Cell culture process” (Momenta Pharmaceuticals, Inc., priority 2011, dated 2024).

Columns and labels:
CL320 CHO cells = assay: Growth (VCD), viability and antibody titer of the culture with supplemented feed; type: cell-based; conditions: addition of 10 mg/L (so in the source)
Protocol: The carboxyl-terminal lysine residues of a model antibody produced by CHO cells were analyzed. […] […] On Day 5, 10 g/L cottonseed hydrolysate was added. VCD and viability were assessed, and cells were harvested on Day 10. The antibodies produced under the various conditions were evaluated for titer and C-terminal lysine by ion exchange chromatography.

[1] = test system: K1 and K2 lysine residues; assay: Additional culture data: levels of K1/K2 lysine residues of the antibody produced; type: cell-based; conditions: included in culture media, compared to controls

SMILES	effect on growth (CL320 CHO cells)	effect on titers (CL320 CHO cells)	effect on viability (CL320 CHO cells)	levels of K1 and K2 lysine residues [1]
N=C(N)NCCC[C@H](N)C(=O)O [L-Arg, L-arginine]	did not affect	did not affect	did not affect	
NCCCC[C@H](N)C(=O)O [L-Lys, L-lysine]	did not affect	did not affect	did not affect	
Cl.N [NH4Cl, ammonium chloride]				increased
